Positions of bridges follow the written chain, without caps; N, C: chain ends. Non-standard residues stand in square brackets, D forms with d. Residues, ends and D or L forms follow the SMILES beside them. Triazole bridges read from a SMILES are 1,4-linked. Lys(N3) = [N-]=[N+]=NCCCC[C@H](N)C(=O)O; Pra = C#CC[C@H](N)C(=O)O

The values that follow come from US20260242759A1, “GQ/11 Protein Peptidomimetics” (Vrije Universiteit Brussel, priority 2022, published 2026).

Format in all cases: cell-based, human
Data set [1] concerns HEK293 cells overexpressing the ghrelin receptor. As to the kind of experiment: Fluorescence microscopy of cell permeability. To be noted: 5 μM, 3 h 45 min, 37° C. Here is the method:
To visualise cell-penetration of the peptides, HEK293 1C8 cells were seeded in 12-well plates, covered with a coverslip, at 120,000 cells/well. After overnight incubation (37° C., 5% CO2), cells were washed with PBS and treated with the fluorescently labeled peptides for 2 h45. Next, BG-fluorescein was added to the mixture, for Snap tag labeling of the cell-surface GHSR. After incubation of 1 h the cells were washed four times with PBS. Cells were then fixed using 4% paraformaldehyde in PBS for 5 min and washed two times with PBS. Finally, Hoechst was diluted 1/1000 in PBS, added to the fixed cells during 10 min, and washed thrice with PBS.
The cells for permeabilization were first incubated with BG-fluorescein during 1 h, followed by four times washing with PBS. The cells were then fixed with 4% paraformaldehyde in PBS for 5 min washed twice. Afterwards, the cells were permeabilized with Triton 0.1% in PBS during 5 min and washed thrice. Finally, the cells were incubated for 3 h 45 with the peptide and washed three times before Hoechst was added for 10 min.
The SulfoCy5-labeled Gq/11 peptidomimetics of Example 5 were also analyzed by fluorescence microscopy to investigate their cell membrane permeability. HEK293 cells overexpressing the ghrelin receptor were seeded overnight on microscope slides. The cells were incubated with 5 μM of SulfoCy5-labeled Gq/11 peptidomimetics for 3 h 45 min at 37° C., followed by Hoechst staining for visualizing the nucleus. The cell membrane was visualized by staining the cell surface ghrelin receptors with fluorescein.

Another data set relates to HEK293 1C8 cells. As to the kind of experiment: MTT cytotoxicity assay. As to conditions: varying concentrations up to 40 μM, 3 h 45 min. Here is the method:
(§1) Cells were washed two times with PBS and incubated with 3-(4,5-dimethylthiazol-2-yl)-2,5-diphenyltetrazolium bromide (MTT) during 3 h, at 37° C. Afterwards, cells were washed once with PBS and then incubated for 10 min with DMSO. Plates were analysed with a Tecan Spark 10 M microplate reader.
(§2) An MTT assay was used to assess the cytotoxicity of the non-fluorescent Gq/11 peptidomimetics of Example 5. An MTT assay is a colorimetric test that evaluates the cell metabolic activity and reflects the cell viability.
On the technique in general: Tetrazolium dyes change colour on reduction, which living cells bring about.

A further data set is described as follows: MTT cytotoxicity assay. To be noted: human, HEK293 1C8 cells, 3 h 45 min, read-out: cell viability. How it is done: as §1, §2

In the case of “H-C(SulfoCy5)-Ahx-RRWWRRWRRFAc[PraVKDAzk]ILQLNLKEYNLV-OH [SBL-GQ-24]”, the “SulfoCy5-labeled peptide observed inside cells” value in data set [1] was “entered cells”.
As to `CC[C@H](C)[C@H](NC(=O)[C@@H]1CCCCn2cc(nn2)C[C@H](NC(=O)[C@H](C)NC(=O)[C@H](Cc2ccccc2)NC(=O)[C@H](CCCCN)NC(=O)[C@H](CCCCN)NC(=O)[C@@H](N)CCCCN)C(=O)N[C@@H](C(C)C)C(=O)N[C@@H](CCCCN)C(=O)N[C@@H](CC(=O)O)C(=O)N1)C(=O)N[C@@H](CC(C)C)C(=O)N[C@@H](CCC(N)=O)C(=O)N[C@@H](CC(C)C)C(=O)N[C@@H](CC(N)=O)C(=O)N[C@@H](CC(C)C)C(=O)N[C@@H](CCCCN)C(=O)N[C@@H](CCC(=O)O)C(=O)N[C@@H](Cc1ccc(O)cc1)C(=O)N[C@@H](CC(N)=O)C(=O)N[C@@H](CC(C)C)C(=O)N[C@H](C(=O)O)C(C)C` [SBL-GQ-13] (H-KKKFA[Pra]VKD[Lys(N3)]ILQLNLKEYNLV-OH; triazole 6-10), the “cytotoxicity / viability” value with HEK293 1C8 cells is “No cytotoxicity”.
With “H-C(SulfoCy5)-Ahx-KKKFAc[PraVKDAzk]ILQLNLKEYNLV-OH [SBL-GQ-21]”, the “SulfoCy5-labeled peptide observed inside cells” value in data set [1] is “very little or no”.
Consider “H-C(SulfoCy5)-Ahx-RRRRRRRRFAc[PraVKDAzk]ILQLNLKEYNLV-OH [SBL-GQ-23]”, for which, in data set [1], the “SulfoCy5-labeled peptide observed inside cells” value is listed as “entered cells”.
“H-C(SulfoCy5)-Ahx-RRRRFAc[PraVKDAzk]ILQLNLKEYNLV-OH [SBL-GQ-22]”: in data set [1], the “SulfoCy5-labeled peptide observed inside cells” value was “very little or no”.
Still for that read-out and setting: under dynorphin [reference compound] stands “very little or no”.
As for `CC[C@H](C)[C@H](NC(=O)[C@@H]1CCCCn2cc(nn2)C[C@H](NC(=O)[C@H](C)NC(=O)[C@H](Cc2ccccc2)NC(=O)[C@H](CCCNC(=N)N)NC(=O)[C@H](CCCNC(=N)N)NC(=O)[C@H](Cc2c[nH]c3ccccc23)NC(=O)[C@H](CCCNC(=N)N)NC(=O)[C@H](CCCNC(=N)N)NC(=O)[C@H](Cc2c[nH]c3ccccc23)NC(=O)[C@H](Cc2c[nH]c3ccccc23)NC(=O)[C@H](CCCNC(=N)N)NC(=O)[C@@H](N)CCCNC(=N)N)C(=O)N[C@@H](C(C)C)C(=O)N[C@@H](CCCCN)C(=O)N[C@@H](CC(=O)O)C(=O)N1)C(=O)N[C@@H](CC(C)C)C(=O)N[C@@H](CCC(N)=O)C(=O)N[C@@H](CC(C)C)C(=O)N[C@@H](CC(N)=O)C(=O)N[C@@H](CC(C)C)C(=O)N[C@@H](CCCCN)C(=O)N[C@@H](CCC(=O)O)C(=O)N[C@@H](Cc1ccc(O)cc1)C(=O)N[C@@H](CC(N)=O)C(=O)N[C@@H](CC(C)C)C(=O)N[C@H](C(=O)O)C(C)C` [SBL-GQ-25] (H-RRWWRRWRRFA[Pra]VKD[Lys(N3)]ILQLNLKEYNLV-OH; triazole 12-16), in “MTT cytotoxicity assay”, the viability at 5 µM was about 90%, the viability at 10 µM was about 85% and the viability at 40 µM is about 50%.
The corresponding values for `CC[C@H](C)[C@H](NC(=O)[C@@H]1CCCCn2cc(nn2)C[C@H](NC(=O)[C@H](C)NC(=O)[C@H](Cc2ccccc2)NC(=O)[C@H](CCCNC(=N)N)NC(=O)[C@H](CCCNC(=N)N)NC(=O)[C@H](CCCNC(=N)N)NC(=O)[C@H](CCCNC(=N)N)NC(=O)[C@H](CCCNC(=N)N)NC(=O)[C@H](CCCNC(=N)N)NC(=O)[C@H](CCCNC(=N)N)NC(=O)[C@@H](N)CCCNC(=N)N)C(=O)N[C@@H](C(C)C)C(=O)N[C@@H](CCCCN)C(=O)N[C@@H](CC(=O)O)C(=O)N1)C(=O)N[C@@H](CC(C)C)C(=O)N[C@@H](CCC(N)=O)C(=O)N[C@@H](CC(C)C)C(=O)N[C@@H](CC(N)=O)C(=O)N[C@@H](CC(C)C)C(=O)N[C@@H](CCCCN)C(=O)N[C@@H](CCC(=O)O)C(=O)N[C@@H](Cc1ccc(O)cc1)C(=O)N[C@@H](CC(N)=O)C(=O)N[C@@H](CC(C)C)C(=O)N[C@H](C(=O)O)C(C)C` [SBL-GQ-15] (H-RRRRRRRRFA[Pra]VKD[Lys(N3)]ILQLNLKEYNLV-OH; triazole 11-15) are about 90%, about 70% and about 50%.

One may read the viability as a read-out of living cells in per cent, often relative to untreated cells.
